Results: US12655116B2, “Substituted isophthalic acid diamides” (Bayer Aktiengesellschaft, priority 2020, dated 2026)

Tests used:
[1] = tested on: HORMU; assay: Pre-emergence herbicidal action against HORMU; format: in vivo, Hordeum murinum; settings: Hordeum murinum, 504 h, pre-emergence
Outline: (§1)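 Pre-emergence soil-surface spray of formulated compound (WP or EC; 600 to 800 l/ha; 0.2% wetting agent) over seeds sown in sandy loam. After 3 weeks under greenhouse conditions, damage is estimated visually in percent against untreated plants.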

[2] = tested on: VERPE; assay: Pre-emergence herbicidal action against VERPE; format: in vivo, Veronica persica; settings: Veronica persica, 504 h, dosage 320 g/ha
Outline: as §1

[3] = tested on: VERPE; assay: Post-emergence herbicidal action against VERPE; format: in vivo, Veronica persica; settings: Veronica persica, 504 h
Outline: (§2)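 Spray, one-leaf stage: WP or EC compound in water, 600–800 l/ha, 0.2% wetting agent. Plants held about 3 weeks in the greenhouse, then visually rated in percent of kill compared with untreated controls.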

[4] = tested on: AMARE; assay: Post-emergence herbicidal action against AMARE; format: in vivo, Amaranthus retroflexus; settings: Amaranthus retroflexus, 504 h, visual assessment about 3 weeks after treatment, 100% = plants have died, 0% = like control plants
Outline: as §2

[5] = tested on: ECHCG; assay: Post-emergence herbicidal action against ECHCG; format: in vivo, Echinochloa crus-galli; settings: Echinochloa crus-galli, 504 h
Outline: as §2

[6] = tested on: AVEFA; assay: Post-emergence herbicidal action against AVEFA; format: in vivo, Avena fatua; settings: Avena fatua, 504 h, 80 g/ha, visual assessment about 3 weeks after treatment, 100% = plants have died, 0% = like control plants
Outline: as §2

[7] = tested on: STEME; assay: Post-emergence herbicidal action against STEME; format: in vivo, Stellaria media; settings: Stellaria media, 504 h
Outline: as §2

[8] = tested on: AVEFA; assay: Pre-emergence herbicidal action against AVEFA; format: in vivo, Avena fatua; settings: Avena fatua, 504 h, pre-emergence
Outline: as §1

[9] = tested on: HORMU; assay: Post-emergence herbicidal action against HORMU; format: in vivo, Hordeum murinum; settings: Hordeum murinum, 504 h, dosage 80 g/ha
Outline: as §2

[10] = tested on: PHBPU; assay: Post-emergence herbicidal action against PHBPU; format: in vivo, Pharbitis purpurea; settings: Ipomoea purpurea, 504 h, dosage 80 g/ha
Outline: as §2

[11] = tested on: MATIN; assay: Pre-emergence herbicidal action against MATIN; format: in vivo, Matricaria inodora; settings: Tripleurospermum inodorum, 504 h
Outline: as §1

[12] = tested on: AMARE; assay: Pre-emergence herbicidal action against AMARE; format: in vivo, Amaranthus retroflexus; settings: Amaranthus retroflexus, 504 h, 100% = plants have died, 0% = like control plants
Outline: as §1

[13] = tested on: MATIN; assay: Post-emergence herbicidal action against MATIN; format: in vivo, Matricaria inodora; settings: Tripleurospermum inodorum, 504 h
Outline: as §2

[14] = tested on: POLCO; assay: Post-emergence herbicidal action against POLCO; format: in vivo, Polygonum convolvulus; settings: Fallopia convolvulus, 504 h, dosage 80 g/ha
Outline: as §2

[15] = tested on: LOLRI; assay: Pre-emergence herbicidal action against LOLRI; format: in vivo, Lolium rigidum; settings: Lolium rigidum, 504 h, 320 g/ha
Outline: as §1

[16] = tested on: STEME; assay: Pre-emergence herbicidal action against STEME; format: in vivo, Stellaria media; settings: Stellaria media, 504 h
Outline: as §1

[17] = tested on: ALOMY; assay: Pre-emergence herbicidal action against ALOMY; format: in vivo, Alopecurus myosuroides; settings: Alopecurus myosuroides, 504 h, pre-emergence
Outline: as §1

[18] = tested on: VIOTR; assay: Pre-emergence herbicidal action against VIOTR; format: in vivo, Viola tricolor; settings: Viola tricolor, 504 h
Outline: as §1

[19] = tested on: SETVI; assay: Pre-emergence herbicidal action against SETVI; format: in vivo, Setaria viridis; settings: Setaria viridis, 504 h
Outline: as §1

[20] = tested on: ABUTH; assay: Pre-emergence herbicidal action against ABUTH; format: in vivo, Abutilon theophrasti; settings: Abutilon theophrasti, 504 h
Outline: as §1

[21] = tested on: VIOTR; assay: Post-emergence herbicidal action against VIOTR; format: in vivo, Viola tricolor; settings: Viola tricolor, 504 h, 80 g/ha
Outline: as §2

[22] = tested on: ECHCG; assay: Pre-emergence herbicidal action against ECHCG; format: in vivo, Echinochloa crus-galli; settings: Echinochloa crus-galli, 504 h
Outline: as §1

[23] = 320 g/ha, scored visually after 3 weeks, 100% = plants have died, 0% = like control plants
[24] = 80 g/ha, scored visually after 3 weeks vs untreated controls (100% = plants have died, 0% = like control plants)

**Q.** For `CNC(=O)c1c(C(F)(F)F)ccc(C(=O)Nc2nnnn2C)c1SC` [Example 1-81], which pest or weed control at 80 g/ha ([1]; 80 g/ha) is on record?
**A.** 80%

**Q.** What about the pest or weed control at 320 g/ha ([1]; 320 g/ha) of the same compound?
**A.** 100%

**Q.** And the pest or weed control at 320 g/ha [2]?
**A.** 100%

**Q.** What about the pest or weed control at 20 g/ha ([3]; 20 g/ha) of the same compound?
**A.** 80%

**Q.** And the pest or weed control at 80 g/ha ([3]; 80 g/ha)?
**A.** 90%

**Q.** What about the pest or weed control at 20 g/ha ([4]; 20 g/ha) of the same compound?
**A.** 90%

**Q.** And the pest or weed control at 80 g/ha ([4]; 80 g/ha)?
**A.** 90%

**Q.** And the pest or weed control at 20 g/ha ([5]; dosage 20 g/ha)?
**A.** 80%

**Q.** What about the pest or weed control at 80 g/ha ([5]; dosage 80 g/ha) of the same compound?
**A.** 90%

**Q.** What about the pest or weed control at 80 g/ha [6] of the same compound?
**A.** 90%

**Q.** And the pest or weed control at 20 g/ha ([7]; 20 g/ha)?
**A.** 90%

**Q.** What about the pest or weed control at 80 g/ha ([7]; 80 g/ha) of the same compound?
**A.** 90%

**Q.** And the pest or weed control at 80 g/ha ([8]; 80 g/ha)?
**A.** 90%

**Q.** What about the pest or weed control at 320 g/ha [8, 23] of the same compound?
**A.** 100%

**Q.** And the pest or weed control at 80 g/ha [9]?
**A.** 80%

**Q.** And the pest or weed control at 80 g/ha [10]?
**A.** 80%

**Q.** And the pest or weed control at 80 g/ha ([11]; dosage 80 g/ha)?
**A.** 100%

**Q.** What about the pest or weed control at 320 g/ha ([11]; dosage 320 g/ha) of the same compound?
**A.** 100%

**Q.** And the pest or weed control at 80 g/ha ([12]; 80 g/ha, scored visually after 3 weeks vs untreated controls)?
**A.** 100%

**Q.** And the pest or weed control at 320 g/ha ([12]; 320 g/ha, scored visually after 3 weeks)?
**A.** 100%

**Q.** What about the pest or weed control at 20 g/ha ([13]; dosage 20 g/ha) of the same compound?
**A.** 80%

**Q.** What about the pest or weed control at 80 g/ha ([13]; dosage 80 g/ha) of the same compound?
**A.** 100%

**Q.** What about the pest or weed control at 80 g/ha [14] of the same compound?
**A.** 90%

**Q.** What about the pest or weed control at 320 g/ha [15] of the same compound?
**A.** 80%

**Q.** And the pest or weed control at 80 g/ha ([16]; dosage 80 g/ha)?
**A.** 100%

**Q.** What about the pest or weed control at 320 g/ha ([16]; dosage 320 g/ha) of the same compound?
**A.** 100%

**Q.** And the pest or weed control at 80 g/ha [17, 24]?
**A.** 80%

**Q.** What about the pest or weed control at 320 g/ha [17, 23] of the same compound?
**A.** 100%

**Q.** And the pest or weed control at 80 g/ha ([18]; dosage 80 g/ha)?
**A.** 90%

**Q.** And the pest or weed control at 320 g/ha ([18]; dosage 320 g/ha)?
**A.** 100%

**Q.** And the pest or weed control at 80 g/ha ([19]; dosage 80 g/ha)?
**A.** 100%

**Q.** And the pest or weed control at 320 g/ha ([19]; dosage 320 g/ha)?
**A.** 100%

**Q.** And the pest or weed control at 80 g/ha [20, 24]?
**A.** 100%

**Q.** And the pest or weed control at 320 g/ha ([20]; Dosage: 320 g/ha, scored visually after 3 weeks, 100% = plants have died, 0% = like control plants)?
**A.** 100%

**Q.** And the pest or weed control at 80 g/ha [21]?
**A.** 80%

**Q.** And the pest or weed control at 80 g/ha ([22]; 80 g/ha)?
**A.** 100%

**Q.** And the pest or weed control at 320 g/ha ([22]; 320 g/ha)?
**A.** 100%
